Activity and IC50 data for 12 compounds are collected here from ChEMBL document CHEMBL1165964, “Design and synthesis of spirotryprostatin-inspired diketopiperazine systems from prolyl spirooxoindolethiazolidine derivatives” (Bioorg Med Chem, 2010).

Structures are written as SMILES. The source made the active and inactive calls. No cut-off for these calls is given here.

Assay type in all cases: functional, cell-based
One experiment deals with T47D. The experiment in a line: Cytotoxicity against human T47D cells at 100 uM after 48 hrs by MTT assay. A general note: Tetrazolium dyes change colour on reduction, which living cells bring about.
In experiment [1] the test system is MCF7. In words: Cytotoxicity against human MCF7 cells at 100 uM after 48 hrs by MTT assay.
The subject of another experiment is A-431. In words: Cytotoxicity against human A431 cells at 100 uM after 48 hrs by MTT assay.
In experiment [2] the test system is MCF7. In words: Cell cycle arrest in human MCF7 cells.
In experiment [3] the test system is MCF7. In words: Cytotoxicity against human MCF7 cells after 48 hrs by MTT assay. The note with it: MCF7, 48 h.
Experiment [4] can be described thus: Cell cycle arrest in mouse tsFT210 cells assessed as accumulation of cells at G2/M phase.

For the compound `CN1C(=O)[C@]2(SC[C@H]3C(=O)N4CCC[C@H]4C(=O)N32)c2ccccc21`, the result in the experiment with T47D, in the experiment with MCF7 [1], in the experiment on A-431 and with MCF7 [2] was inactive.

Regarding `CN1C(=O)[C@@]2(SC[C@H]3C(=O)N4CCC[C@H]4C(=O)N32)c2ccccc21`, the outcome with T47D, in the experiment with MCF7 [1], with A-431 and in the experiment on MCF7 [2] was inactive.

In the case of `Cc1ccc2c(c1)[C@@]1(SC[C@H]3C(=O)N4CCC[C@H]4C(=O)N31)C(=O)N2`, the result with T47D, in the experiment on MCF7 [1], in the experiment on A-431 and with MCF7 [2] was inactive.

By IC50 is commonly meant the concentration that gives 50% inhibition. Take `CCOC(=O)[C@@]1(c2cc(C)ccc2N)SC[C@H]2C(=O)N3CCC[C@H]3C(=O)N21`: the IC50 with MCF7 [3] was determined as 1.6 µM.

`O=C1[C@@H]2CS[C@]3(C(=O)Nc4ccc(Br)cc43)N2C(=O)[C@@H]2CCCN12`: the outcome with T47D, in the experiment on MCF7 [1], in the experiment on A-431 and with MCF7 [2] was inactive.

On to `O=C1[C@@H]2CS[C@@]3(C(=O)Nc4ccccc43)N2C(=O)[C@@H]2CCCN12`, for which the result with T47D, with MCF7 [1], in the experiment on A-431 and in the experiment with MCF7 [2] was inactive.

As to `Cc1ccc2c(c1)[C@]1(SC[C@H]3C(=O)N4CCC[C@H]4C(=O)N31)C(=O)N2`, the outcome in the experiment on T47D, with MCF7 [1], in the experiment on A-431 and in the experiment with MCF7 [2] was inactive.

Turning to `CCOC(=O)[C@@]1(c2cc(Br)ccc2N)SC[C@H]2C(=O)N3CCC[C@H]3C(=O)N21`, in the experiment with MCF7 [3], the midpoint of inhibition, the IC50, lay at 2.2 µM.

Consider `O=C1[C@@H]2CS[C@@]3(C(=O)Nc4ccc(Br)cc43)N2C(=O)[C@@H]2CCCN12`, for which the outcome with T47D, in the experiment on MCF7 [1], in the experiment with A-431 and in the experiment with MCF7 [2] was inactive.

For the compound `CCOC(=O)[C@@]1(c2ccccc2N)SC[C@H]2C(=O)N3CCC[C@H]3C(=O)N21`, the IC50 with MCF7 [3] is 14.8 µM.

As for `O=C1[C@@H]2CS[C@]3(C(=O)Nc4ccccc43)N2C(=O)[C@@H]2CCCN12`, the result with T47D, with MCF7 [1], in the experiment with A-431 and with MCF7 [2] was inactive.

`COc1ccc2c(c1)NC(=O)[C@@]21C[C@H]2C(=O)N3CCC[C@H]3C(=O)N2[C@H]1C=C(C)C` [SPIROTRYPROSTATIN A]: the IC50 in experiment [4] is 198 µM.
